Legend:
[1] = Phase 1 pediatric dose-escalation trial: pharmacokinetic studies (exposure, AUC0-∞); format: in vivo, human; details: for AUC(0-inf): human, plasma, oral
Method: (§1) A 3+3 design is used. Based on the adult dose of 350 mg/m^2 by mouth every week (using a typical adult BSA of 1.7 m^2), the starting dose for the pediatric study was 80% of the adult RP2D, which was 280 mg/m^2 by mouth every week. Doses were escalated in an inter-patient stepwise fashion until dose-limiting toxicities (DLTs) were observed. The three different dose levels: 280 mg/m^2, 350 mg/m^2, and […].
(§2) Treatment began at 80% of the adult dose (i.e., 280 mg/m^2 by mouth once weekly based on the following calculation: • An adult dose of 600 mg once weekly and an average adult BSA (m^2) of 1.73 m^2=350 mg/m^2 • 80% of 350 mg/m^2=280 mg/m^2 starting dose
(§3) The dose escalation scheme is described in Table 1-A. The initial phase included 3 dose escalation levels to a maximum of 530 mg/m^2/dose weekly.
Pharmacokinetic studies were performed on all patients in the phase I component of the trial as venous access allowed. The initial phase 1 included 3 dose escalation levels to a maximum of 530 mg/m^2/dose weekly. PK studies were also conducted to evaluate phosphorylated ERK in the peripheral blood mononuclear cells.

[2] = tested on: pediatric low grade glioma (pLGG); test: Phase 1 pediatric dose-escalation trial: tumor response by RANO criteria; format: in vivo, human; details: for Best RANO Response (T1-Gad): pLGG
Method: as §1, §2, §3
FIG. 2 illustrates Phase 1 trial data of these nine individual pediatric LGG (pLGG) patient responses to Compound A over time. […] The median time to response was 10.5 weeks. Two patients achieved a complete response that was maintained throughout the dosing period of up to two years.
Two of eight patients with a RAF fusion had prolonged stable disease.

[3] = pLGG patients with a RAF fusion, Phase 1

Dose normalized AUC0-∞ ([1]; Subject-1 (PNOC014-01), predicted exposure at 530 mg/m^2 (predicted dose 456, 21 mg/kg), original dose cohort 280 mg/m^2): 1268 µg·h/L | Dose normalized AUC0-∞ ([1]; Subject-2 (PNOC014-02), predicted exposure at 530 mg/m^2 (predicted dose 530, 19 mg/kg), original dose cohort 280 mg/m^2): 682 µg·h/L | Dose normalized AUC0-∞ ([1]; Subject-3 (PNOC014-03), predicted exposure at 530 mg/m^2 (predicted dose 419, 23 mg/kg), original dose cohort 280 mg/m^2): 614 µg·h/L | Dose normalized AUC0-∞ ([1]; Subject-4 (PNOC014-04), predicted exposure at 530 mg/m^2 (predicted dose 906, 13 mg/kg), original dose cohort 350 mg/m^2): 705 µg·h/L | Dose normalized AUC0-∞ ([1]; Subject-5 (PNOC014-05), predicted exposure at 530 mg/m^2 (predicted dose 906, 14 mg/kg), original dose cohort 350 mg/m^2): 653 µg·h/L | Dose normalized AUC0-∞ ([1]; Subject-6 (PNOC014-06), predicted exposure at 530 mg/m^2 (predicted dose 848, 16 mg/kg), original dose cohort 350 mg/m^2): 640 µg·h/L | Dose normalized AUC0-∞ ([1]; Subject-7 (PNOC014-07), predicted exposure at 530 mg/m^2 (predicted dose 784, 15 mg/kg), original dose cohort 420 mg/m^2): 701 µg·h/L | Dose normalized AUC0-∞ ([1]; Subject-9 (PNOC014-09), predicted exposure at 530 mg/m^2 (predicted dose 376, 24 mg/kg), original dose cohort 420 mg/m^2): 1122 µg·h/L | AUC(0-inf) ([1]; 280 mg/m^2, Subject-1 (PNOC014-01), 21.9 kg, BSA 0.86 m^2, dose cohort 280 mg/m^2 by mouth once weekly, dose given 240 mg (11.0 mg/kg)): 670 ng·h/mL | AUC(0-inf) ([1]; 280 mg/m^2, Subject-2 (PNOC014-02), 28.2 kg, BSA 1.0 m^2, dose cohort 280 mg/m^2 by mouth once weekly, dose given 280 mg (9.9 mg/kg)): 361 ng·h/mL | AUC(0-inf) ([1]; 280 mg/m^2, Subject-3 (PNOC014-03), 18.1 kg, BSA 0.79 m^2, dose cohort 280 mg/m^2 by mouth once weekly, dose given 220 mg (12.2 mg/kg)): 324 ng·h/mL | AUC(0-inf) ([1]; 350 mg/m^2, Subject-4 (PNOC014-04), 69.6 kg, BSA 1.71 m^2, dose cohort 350 mg/m^2 by mouth once weekly, dose given 600 mg (8.6 mg/kg)): 466 ng·h/mL | AUC(0-inf) ([1]; 350 mg/m^2, Subject-5 (PNOC014-05), 66.5 kg, BSA 1.71 m^2, dose cohort 350 mg/m^2 by mouth once weekly, dose given 600 mg (9.0 mg/kg)): 431 ng·h/mL | AUC(0-inf) ([1]; 350 mg/m^2, Subject-6 (PNOC014-06), 53.6 kg, BSA 1.6 m^2, dose cohort 350 mg/m^2 by mouth once weekly, dose given 560 mg (10.4 mg/kg)): 423 ng·h/mL | AUC(0-inf) ([1]; 420 mg/m^2, Subject-7 (PNOC014-07), 53.7 kg, BSA 1.48 m^2, dose cohort 420 mg/m^2 by mouth once weekly, dose given 620 mg (11.5 mg/kg)): 556 ng·h/mL | AUC(0-inf) ([1]; 420 mg/m^2, Subject-9 (PNOC014-09), 15.6 kg, BSA 0.71 m^2, dose cohort 420 mg/m^2 by mouth once weekly, dose given 300 mg (19.2 mg/kg)): 889 ng·h/mL
Compound: C[C@@H](NC(=O)c1ncnc(N)c1Cl)c1ncc(C(=O)Nc2cc(C(F)(F)F)c(Cl)cn2)s1 [Compound A, (R)-2-(1-(6-amino-5-chloropyrimidine-4-carboxamido)ethyl)-N-(5-chloro-4-(trifluoromethyl)pyridin-2-yl)thiazole-5-carboxamide]
patients who did not respond ([2]; NF1-associated pLGG, Phase 1): One | Best RANO Response (T1-Gad) ([2]; Subject-1 (PNOC014-01), BSA 0.86 m^2, dose cohort 280 mg/m^2 once weekly): CR (CR = −100%) | Best RANO Response (T1-Gad) ([2]; Subject-2 (PNOC014-02), BSA 1.0 m^2, dose cohort 280 mg/m^2 once weekly): PR (PR = −50% or more reduction from baseline) | Best RANO Response (T1-Gad) ([2]; Subject-3 (PNOC014-03), BSA 0.79 m^2, dose cohort 280 mg/m^2 once weekly): PR (PR = −50% or more reduction from baseline) | Best RANO Response (T1-Gad) ([2]; Subject-4 (PNOC014-04), BSA 1.71 m^2, dose cohort 350 mg/m^2 once weekly): PD (PD = ≥25% growth from nadir) | Best RANO Response (T1-Gad) ([2]; Subject-5 (PNOC014-05), BSA 1.71 m^2, dose cohort 350 mg/m^2 once weekly): SD (SD = between −50% and +25%) | Best RANO Response (T1-Gad) ([2]; Subject-6 (PNOC014-06), BSA 1.6 m^2, dose cohort 350 mg/m^2 once weekly): PD (PD = ≥25% growth from nadir) | Best RANO Response (T1-Gad) ([2]; Subject-7 (PNOC014-07), BSA 1.48 m^2, dose cohort 420 mg/m^2 once weekly): SD (SD = between −50% and +25%) | Best RANO Response (T1-Gad) ([2]; Subject-9 (PNOC014-09), BSA 0.71 m^2, dose cohort 420 mg/m^2 once weekly): PR (PR = −50% or more reduction from baseline) | patients achieving a complete response maintained throughout the dosing period of up to two years ([2]; nine pLGG patients, Phase 1): Two | patients achieving prolonged stable disease ([2]; nine pLGG patients, Phase 1): two | patients who did not achieve a response ([2]; nine pLGG patients, Phase 1): two | patients with a partial response ([2]; nine pLGG patients, Phase 1): Three | patients with shrinkage in lesion size in the first radiologic images after initiation of dosing ([2]; nine pLGG patients, Phase 1): six of nine | median time to response ([2]; nine pLGG patients, Phase 1, 280-420 mg/m^2 once weekly): 10.5 weeks | patients who did not respond [2, 3]: One | patients with complete or partial response per RANO criteria (≥50% decrease compared with baseline) [2, 3]: Five of the eight | patients with prolonged stable disease [2, 3]: Two of eight
